Experimental data: the NIST ThermoML archive (doi:10.1016/j.jct.2018.02.018)
± gives the expanded uncertainty stated by the source.

Test: xn = mol fraction of the nth substance listed
Settings: 100 kPa, Liquid; for speed of sound: Frequency=3 MHz, Single path-length method; for mass density: Vibrating tube method

SMILES: CN(C)CCOCCO [2-(2-dimethylaminoethoxy)ethanol] + C[S+](C)[O-]
- speed of sound (293.15 K, x2 = 0): 1403.6 ± 2.4 m/s
- speed of sound (293.15 K, x2 = 0.0984): 1410.5 ± 2.3 m/s
- speed of sound (293.15 K, x2 = 0.2001): 1417.2 ± 2.2 m/s
- speed of sound (293.15 K, x2 = 0.2995): 1423.8 ± 2.1 m/s
- speed of sound (293.15 K, x2 = 0.4021): 1431 ± 2 m/s
- speed of sound (293.15 K, x2 = 0.4992): 1439.1 ± 1.9 m/s
- speed of sound (293.15 K, x2 = 0.6003): 1448.2 ± 1.8 m/s
- speed of sound (293.15 K, x2 = 0.7006): 1458.4 ± 1.7 m/s
- speed of sound (293.15 K, x2 = 0.795): 1470.1 ± 1.6 m/s
- speed of sound (293.15 K, x2 = 0.8997): 1485.1 ± 1.5 m/s
- speed of sound (293.15 K, x2 = 0.9505): 1494.1 ± 1.5 m/s
- mass density (293.15 K, x2 = 0): 954 ± 4 kg/m3
- mass density (293.15 K, x2 = 0.0984): 962 ± 4 kg/m3
- mass density (293.15 K, x2 = 0.2001): 971 ± 4 kg/m3
- mass density (293.15 K, x2 = 0.2995): 981 ± 4 kg/m3
- mass density (293.15 K, x2 = 0.4021): 992 ± 4 kg/m3
- mass density (293.15 K, x2 = 0.4992): 1003 ± 4 kg/m3
- mass density (293.15 K, x2 = 0.6003): 1017 ± 4 kg/m3
- mass density (293.15 K, x2 = 0.7006): 1033 ± 4 kg/m3
- mass density (293.15 K, x2 = 0.795): 1051 ± 4 kg/m3
- mass density (293.15 K, x2 = 0.8997): 1074 ± 4 kg/m3
- mass density (293.15 K, x2 = 0.9505): 1087 ± 4 kg/m3
- speed of sound (303.15 K, x2 = 0): 1369.9 ± 2.4 m/s
- speed of sound (303.15 K, x2 = 0.0984): 1377.3 ± 2.3 m/s
- speed of sound (303.15 K, x2 = 0.2001): 1384 ± 2.2 m/s
- speed of sound (303.15 K, x2 = 0.2995): 1390.2 ± 2.1 m/s
- speed of sound (303.15 K, x2 = 0.4021): 1397.7 ± 2 m/s
- speed of sound (303.15 K, x2 = 0.4992): 1405.5 ± 1.9 m/s
- speed of sound (303.15 K, x2 = 0.6003): 1414.5 ± 1.8 m/s
- speed of sound (303.15 K, x2 = 0.7006): 1425.1 ± 1.7 m/s
- speed of sound (303.15 K, x2 = 0.795): 1436.6 ± 1.6 m/s
- speed of sound (303.15 K, x2 = 0.8997): 1451.1 ± 1.5 m/s
- speed of sound (303.15 K, x2 = 0.9505): 1460.6 ± 1.5 m/s
- mass density (303.15 K, x2 = 0): 946 ± 4 kg/m3
- mass density (303.15 K, x2 = 0.0984): 954 ± 4 kg/m3
- mass density (303.15 K, x2 = 0.2001): 963 ± 4 kg/m3
- mass density (303.15 K, x2 = 0.2995): 972 ± 4 kg/m3
- mass density (303.15 K, x2 = 0.4021): 983 ± 4 kg/m3
- mass density (303.15 K, x2 = 0.4992): 995 ± 4 kg/m3
- mass density (303.15 K, x2 = 0.6003): 1008 ± 4 kg/m3
- mass density (303.15 K, x2 = 0.7006): 1024 ± 4 kg/m3
- mass density (303.15 K, x2 = 0.795): 1041 ± 4 kg/m3
- mass density (303.15 K, x2 = 0.8997): 1064 ± 4 kg/m3
- mass density (303.15 K, x2 = 0.9505): 1077 ± 4 kg/m3
- speed of sound (313.15 K, x2 = 0): 1336.8 ± 2.4 m/s
- speed of sound (313.15 K, x2 = 0.0984): 1344.1 ± 2.3 m/s
- speed of sound (313.15 K, x2 = 0.2001): 1350.8 ± 2.2 m/s
- speed of sound (313.15 K, x2 = 0.2995): 1357.1 ± 2.1 m/s
- speed of sound (313.15 K, x2 = 0.4021): 1364.6 ± 2 m/s
- speed of sound (313.15 K, x2 = 0.4992): 1372.4 ± 1.9 m/s
- speed of sound (313.15 K, x2 = 0.6003): 1381.3 ± 1.8 m/s
- speed of sound (313.15 K, x2 = 0.7006): 1391.4 ± 1.7 m/s
- speed of sound (313.15 K, x2 = 0.795): 1403.2 ± 1.6 m/s
- speed of sound (313.15 K, x2 = 0.8997): 1417.6 ± 1.5 m/s
- speed of sound (313.15 K, x2 = 0.9505): 1427 ± 1.5 m/s
- mass density (313.15 K, x2 = 0): 938 ± 4 kg/m3
- mass density (313.15 K, x2 = 0.0984): 946 ± 4 kg/m3
- mass density (313.15 K, x2 = 0.2001): 954 ± 4 kg/m3
- mass density (313.15 K, x2 = 0.2995): 964 ± 4 kg/m3
- mass density (313.15 K, x2 = 0.4021): 975 ± 4 kg/m3
- mass density (313.15 K, x2 = 0.4992): 986 ± 4 kg/m3
- mass density (313.15 K, x2 = 0.6003): 999 ± 4 kg/m3
- mass density (313.15 K, x2 = 0.7006): 1015 ± 4 kg/m3
- mass density (313.15 K, x2 = 0.795): 1032 ± 4 kg/m3
- mass density (313.15 K, x2 = 0.8997): 1054 ± 4 kg/m3
- mass density (313.15 K, x2 = 0.9505): 1067 ± 4 kg/m3
